Reference: patent US10722501B2 (BAYER AKTIENGESELLSCHAFT, priority 2016, dated 2020)

Molecular target: T1, recombinant full-length human prolyl endopeptidase (PREP) (Homo sapiens, UniProt P48147)
T1 construct: To recombinant full-length human prolyl endopeptidase (PREP, R&D-Systems, 4308-SE); purchased R&D-Systems 4308-SE
T1 sequence (P48147 1-710): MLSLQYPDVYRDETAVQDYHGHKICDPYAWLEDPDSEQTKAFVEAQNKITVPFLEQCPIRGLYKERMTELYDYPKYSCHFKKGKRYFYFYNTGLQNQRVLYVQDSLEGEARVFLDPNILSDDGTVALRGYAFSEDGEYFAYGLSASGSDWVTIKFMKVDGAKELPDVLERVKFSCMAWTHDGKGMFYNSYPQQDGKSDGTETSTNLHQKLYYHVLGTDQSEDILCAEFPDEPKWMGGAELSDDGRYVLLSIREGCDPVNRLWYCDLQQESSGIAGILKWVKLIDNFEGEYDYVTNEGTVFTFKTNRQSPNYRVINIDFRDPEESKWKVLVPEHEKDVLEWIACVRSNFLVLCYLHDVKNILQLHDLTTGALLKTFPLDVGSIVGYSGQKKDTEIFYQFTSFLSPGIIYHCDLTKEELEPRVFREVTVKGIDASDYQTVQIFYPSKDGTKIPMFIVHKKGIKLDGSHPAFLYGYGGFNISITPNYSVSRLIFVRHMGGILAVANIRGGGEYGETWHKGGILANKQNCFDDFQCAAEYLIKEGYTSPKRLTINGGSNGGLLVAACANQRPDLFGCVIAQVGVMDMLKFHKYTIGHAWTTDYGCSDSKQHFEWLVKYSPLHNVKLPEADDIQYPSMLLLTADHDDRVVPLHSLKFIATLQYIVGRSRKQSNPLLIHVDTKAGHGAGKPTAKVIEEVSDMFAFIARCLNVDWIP
Assay: Biochemical human prolyl endopeptidase (PREP) assay with fluorescently labelled substrate
Conditions: substrate Z-Gly-Pro-AMC 50 μM, 32° C., 60 min; some as mean values from multiple independent determinations
Method in brief: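 0.4 nM (final, example) recombinant PREP in pH 7.5 Tris buffer with EDTA, GSH, BSA and Brij-35; compounds at 1 nM to 30 μM. Reaction started with 50 μM Z-Gly-Pro-AMC and followed by fluorescence (ex 360/em 465 nm) at 32° C for 60 min. IC50 interpolated from percent activity based on initial slopes.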

SMILES	IC50
O=C([C@@H]1CCCc2nn(Cc3cccc(Cl)n3)c(=O)n21)N1CCC(F)(F)C1 [Example 383, (5S)-2-[(6-Chloropyridin-2-yl)methyl]-5-[(3,3-difluoropyrrolidin-1-yl)carbonyl]-5,6,7,8-tetrahydro[1,2,4]triazolo[4,3-a]pyridin-3(2H)-one]	8.55 nM
O=C(C1CC(C(F)(F)F)Cc2nn(Cc3ccc(C(F)(F)F)nc3)c(=O)n21)N1CCC(F)(F)C1 (single isomer, unassigned) [Example 313, (5RS,7RS)-5-[(3,3-Difluoropyrrolidin-1-yl)carbonyl]-7-(trifluoromethyl)-2-{[6-(trifluoromethyl)pyridin-3-yl]methyl}-5,6,7,8-tetrahydro[1,2,4]triazolo[4,3-a]pyridin-3(2H)-one]	4 nM
O=C([C@@H]1CCCc2nn(Cc3ccc(C(F)(F)F)cn3)c(=O)n21)N1CCCC1 [Example 531, (5S)-5-(Pyrrolidin-1-ylcarbonyl)-2-{[5-(trifluoromethyl)pyridin-2-yl]methyl}-5,6,7,8-tetrahydro[1,2,4]triazolo[4,3-a]pyridin-3(2H)-one]	3 nM
O=C(C1CCCc2nn(Cc3ccc(Cl)nc3)c(=O)n21)N1CCCC1 (racemic) [Example 31, (5RS)-2-[(6-Chloropyridin-3-yl)methyl]-5-(pyrrolidin-1-ylcarbonyl)-5,6,7,8-tetrahydro[1,2,4]triazolo[4,3-a]pyridin-3(2H)-one]	2.9 nM
O=C([C@@H]1CCCc2nn(Cc3cncc(Cl)c3)c(=O)n21)N1C[C@@H](F)[C@@H](F)C1 [Example 439, (5S)-2-[(5-Chloropyridin-3-yl)methyl]-5-{[(3R,4S)-3,4-difluoropyrrolidin-1-yl]carbonyl}-5,6,7,8-tetrahydro[1,2,4]triazolo[4,3-a]pyridin-3(2H)-one]	2.2 nM
CN(C)C(=O)c1ccc(Cn2nc3n(c2=O)C(C(=O)N2CCCC2)CCC3)cc1 (racemic) [Example 156, N,N-Dimethyl-4-{[(5RS)-3-oxo-5-(pyrrolidin-1-ylcarbonyl)-5,6,7,8-tetrahydro[1,2,4]triazolo[4,3-a]pyridin-2(3H)-yl]methyl}benzamide]	69 nM
O=C(C1C(C(F)(F)F)CCc2nn(Cc3ccc(C(F)(F)F)nc3)c(=O)n21)N1CC[C@H](F)C1 (single isomer, unassigned) [Example 285]	1.3 nM
Cc1ccc(Cn2nc3n(c2=O)C(C(=O)N2CC(O)C2)CCC3)cc1 (single isomer, unassigned) [Example 121, (5RS)-5-[(3-Hydroxyazetidin-1-yl)carbonyl]-2-(4-methylbenzyl)-5,6,7,8-tetrahydro[1,2,4]triazolo[4,3-a]pyridin-3(2H)-one]	4.3 nM
O=C([C@@H]1CCCc2nn(Cc3ncc(Cl)cc3Cl)c(=O)n21)N1C[C@@H](F)[C@@H](F)C1 [Example 400, (5S)-2-[(3,5-Dichloropyridin-2-yl)methyl]-5-{[(3R,4S)-3,4-difluoropyrrolidin-1-yl]carbonyl}-5,6,7,8-tetrahydro[1,2,4]triazolo[4,3-a]pyridin-3(2H)-one]	0.455 nM
O=C(C1CC(C(F)(F)F)Cc2nn(Cc3ccc(Cl)nc3)c(=O)n21)N1C[C@@H](F)[C@@H](F)C1 (single isomer, unassigned) [Example 249]	0.83 nM
O=C([C@@H]1CCC(F)(F)c2nn(Cc3ccc(Cl)cn3)c(=O)n21)N1CC[C@H](F)C1 [Example 555, (5S)-2-[(5-Chloropyridin-2-yl)methyl]-8,8-difluoro-5-{[(3S)-3-fluoropyrrolidin-1-yl]carbonyl}-5,6,7,8-tetrahydro[1,2,4]triazolo[4,3-a]pyridin-3(2H)-one]	0.54 nM
CCn1nc(C(F)(F)F)cc1Cn1nc2n(c1=O)[C@H](C(=O)N1CC(F)C1)CCC2 [Example 363, (5S)-2-{[1-Ethyl-3-(trifluoromethyl)-1H-pyrazol-5-yl]methyl}-5-[(3-fluoroazetidin-1-yl)carbonyl]-5,6,7,8-tetrahydro[1,2,4]triazolo[4,3-a]pyridin-3(2H)-one]	2.3 nM

The next lines start with the values.

IC50	SMILES
0.13 nM	COc1ccc(Cn2nc3n(c2=O)[C@H](C(=O)N2CCC[C@H]2C#N)CCC3)cn1 [Example 432, (2S)-1-({(5S)-2-[(6-Methoxypyridin-3-yl)methyl]-3-oxo-2,3,5,6,7,8-hexahydro[1,2,4]triazolo[4,3-a]pyridin-5-yl}carbonyl)pyrrolidine-2-carbonitrile]
7.5 nM	CC1Cc2nn(Cc3ccc(C(F)(F)F)nc3)c(=O)n2C(C(=O)N2C[C@@H](F)[C@@H](F)C2)C1 (single isomer, unassigned) [Example 337]
0.81 nM	CCn1nc(C(F)(F)F)cc1Cn1nc2n(c1=O)[C@H](C(=O)N1CC[C@H](F)C1)CCC2 [Example 360, (5S)-2-{[1-Ethyl-3-(trifluoromethyl)-1H-pyrazol-5-yl]methyl}-5-{[(3S)-3-fluoropyrrolidin-1-yl]carbonyl}-5,6,7,8-tetrahydro[1,2,4]triazolo[4,3-a]pyridin-3(2H)-one]
1.2 nM	O=C([C@@H]1CCCc2nn(Cc3ccc(C(F)F)nc3)c(=O)n21)N1CC[C@H](F)C1 [Example 206, (5S)-2-{[6-(Difluoromethyl)pyridin-3-yl]methyl}-5-{[(3S)-3-fluoropyrrolidin-1-yl]carbonyl}-5,6,7,8-tetrahydro[1,2,4]triazolo[4,3-a]pyridin-3(2H)-one]
31 nM	O=C([C@@H]1CCCc2nn(Cc3cncc(Cl)c3)c(=O)n21)N1CC(F)C(F)C1 (mixture of isomers) [Example 548, (5S)-2-[(5-Chloropyridin-3-yl)methyl]-5-{[trans-3,4-difluoropyrrolidin-1-yl]carbonyl}-5,6,7,8-tetrahydro[1,2,4]triazolo[4,3-a]pyridin-3(2H)-one]
0.44 nM	O=C([C@@H]1CCCc2nn(Cc3cc(C(F)(F)F)nc4ccc(F)cc34)c(=O)n21)N1CCCC1 [Example 498, (5S)-2-{[6-Fluoro-2-(trifluoromethyl)quinolin-4-yl]methyl}-5-(pyrrolidin-1-ylcarbonyl)-5,6,7,8-tetrahydro[1,2,4]triazolo[4,3-a]pyridin-3(2H)-one]
2.3 nM	O=C(C1CCCc2nn(Cc3cc(F)c(F)cc3F)c(=O)n21)N1CCC(F)(F)C1 (racemic) [Example 91, (5RS)-5-[(3,3-Difluoropyrrolidin-1-yl)carbonyl]-2-(2,4,5-trifluorobenzyl)-5,6,7,8-tetrahydro[1,2,4]triazolo[4,3-a]pyridin-3(2H)-one]
1.1 nM	O=C([C@@H]1CCCc2nn(Cc3cncc(C(F)(F)F)c3)c(=O)n21)N1CCC(F)(F)C1 [Example 579, (5S)-5-[(3,3-Difluoropyrrolidin-1-yl)carbonyl]-2-{[5-(trifluoromethyl)pyridin-3-yl]methyl}-5,6,7,8-tetrahydro[1,2,4]triazolo[4,3-a]pyridin-3(2H)-one]
1.9 nM	CC1CCC(C(=O)N2CCC(F)(F)C2)n2c1nn(Cc1ccc(F)cc1F)c2=O (racemic) [Example 327, (5RS,8RS)-2-(2,4-Difluorobenzyl)-5-[(3,3-difluoropyrrolidin-1-yl)carbonyl]-8-methyl-5,6,7,8-tetrahydro[1,2,4]triazolo[4,3-a]pyridin-3(2H)-one]
19 nM	Cc1ccc(C2(Cn3nc4n(c3=O)[C@H](C(=O)N3CC(O)C3)CCC4)CC2)cc1 [Example 354, (5S)-5-[(3-Hydroxyazetidin-1-yl)carbonyl]-2-{[1-(4-methylphenyl)cyclopropyl]methyl}-5,6,7,8-tetrahydro[1,2,4]triazolo[4,3-a]pyridin-3(2H)-one]
3.4 nM	Cc1cc(Cn2nc3n(c2=O)C(C(=O)N2CC[C@H](F)C2)CCC3)on1 (mixture of isomers) [Example 416, (5RS)-5-{[(3S)-3-Fluoropyrrolidin-1-yl]carbonyl}-2-[(3-methyl-1,2-oxazol-5-yl)methyl]-5,6,7,8-tetrahydro[1,2,4]triazolo[4,3-a]pyridin-3(2H)-one]
3.8 nM	O=C(C1C(C(F)(F)F)CCc2nn(Cc3ccnc(C(F)(F)F)c3F)c(=O)n21)N1CC[C@H](F)C1 (mixture of isomers) [Example 280, (5RS,6RS)-5-{[(3S)-3-Fluoropyrrolidin-1-yl]carbonyl}-2-{[3-fluoro-2-(trifluoromethyl)pyridin-4-yl]methyl}-6-(trifluoromethyl)-5,6,7,8-tetrahydro[1,2,4]triazolo[4,3-a]pyridin-3(2H)-one]
4 nM	Cc1ccccc1Cn1nc2n(c1=O)C(C(=O)N1CCCC1)CCC2 (racemic) [Example 58, (5RS)-2-(2-Methylbenzyl)-5-(pyrrolidin-1-ylcarbonyl)-5,6,7,8-tetrahydro[1,2,4]triazolo[4,3-a]pyridin-3(2H)-one]
